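The compound was tested at five concentrations on cells cultured in 96-well plates, with a 48-hour exposure period. Definition used: TGI = concentration required for complete inhibition of growth.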
Experiments:
Assay in all cases: NCI-60 cell line screen, 48 h
U251 CNS = system: U251 CNS
MOLT-4 leukemia = system: MOLT-4 leukemia
SF-295 CNS = system: SF-295 CNS
DMS 114 small cell lung = system: DMS 114 small cell lung
UACC-257 melanoma = system: UACC-257 melanoma
DLD-1 colon = system: DLD-1 colon
NCI-H460 lung = system: NCI-H460 lung
M19-MEL melanoma = system: M19-MEL melanoma
NCI-H522 lung = system: NCI-H522 lung
MDA-MB-435 = system: MDA-MB-435
T-47D breast = system: T-47D breast
HCC-2998 colon = system: HCC-2998 colon
PC-3 prostate = system: PC-3 prostate
NCI-H226 lung = system: NCI-H226 lung
MDA-N = system: MDA-N
CAKI-1 renal = system: CAKI-1 renal
DU-145 prostate = system: DU-145 prostate
ACHN renal = system: ACHN renal
HCT-15 colon = system: HCT-15 colon
MDA-MB-231 breast = system: MDA-MB-231 breast

Measured: TGI

O=C1C(Cl)N(c2ccc([N+](=O)[O-])cc2)C1c1c[nH]c2ccccc12 (stereo not given)
> 100 µM: U251 CNS | MOLT-4 leukemia | SF-295 CNS | DMS 114 small cell lung | UACC-257 melanoma | DLD-1 colon | NCI-H460 lung | M19-MEL melanoma | NCI-H522 lung

O=c1c2cccnc2oc2c(Cl)cc(-c3nn[nH]n3)cc12
> 100 µM: MDA-MB-435 | T-47D breast | HCC-2998 colon | PC-3 prostate | NCI-H226 lung | MDA-N | CAKI-1 renal | DU-145 prostate | ACHN renal | HCT-15 colon | MDA-MB-231 breast

Source: PubChem BioAssay (NCI)
